{
  "source": "the pKa sets of Baltruschat and Czodrowski (2020)",
  "data": [
    {"conditions": "basic group", "values": [
      {"smiles": "CC(C)CNCC(=O)c1ccc(O)cc1", "pKa": 7.74},
      {"smiles": "Cc1ccccc1/C(=N/CCCN(C)C)c1ccccc1", "pKa": 9},
      {"smiles": "Nc1ccc(Cc2ccc(N)cc2)cc1", "pKa": 5.1},
      {"smiles": "Nc1ccc2cccnc2c1", "pKa": 6.65},
      {"smiles": "CCN(CC)CC(=O)Nc1c(C)cc(C)cc1C", "pKa": 7.9},
      {"smiles": "CC(C)CNC(C)C", "pKa": 10.6},
      {"smiles": "Cc1n[nH]c2c(N)ncnc12", "pKa": 5.02},
      {"smiles": "CC(C)NCCN", "pKa": 10.6},
      {"smiles": "Nc1cc2ccccc2nn1", "pKa": 3.66},
      {"smiles": "Cc1ccc(N)cc1CN", "pKa": 9.33},
      {"smiles": "CN(C)Cc1cc(Br)ccc1[O-]", "pKa": 10.7},
      {"smiles": "CC(N)CC1CCCCC1", "note": "(configuration not stated)", "pKa": 10.1},
      {"smiles": "Cn1c(=O)[nH]c2nc[nH]c2c1=O", "pKa": 1.19},
      {"smiles": "[O-]c1[nH+]cncc1O", "pKa": 1.99},
      {"smiles": "CCCCN", "pKa": 10.7},
      {"smiles": "Nc1ncnc2c1ncn2C1CCCCC1", "pKa": 4.19},
      {"smiles": "S=C(/N=N/c1ccccc1)NNc1ccccc1", "pKa": 4.64},
      {"smiles": "CCCCCCCCCCN(CC(C)O)CC(C)O", "note": "(configuration not stated)", "pKa": 7.6},
      {"smiles": "CC(N)CC#N", "note": "(configuration not stated)", "pKa": 7.85},
      {"smiles": "CC(=O)OCC1CN2CCC1CC2", "note": "(configuration not stated)", "pKa": 10.3},
      {"smiles": "Cc1ccc(CCN)cc1", "pKa": 9.78},
      {"smiles": "COc1ccc2ccc(OC)c(N3CCOCC3)c2c1N1CCOCC1", "pKa": 13},
      {"smiles": "CN(C)CCOC(C)(c1ccccc1)c1ccccn1", "note": "(configuration not stated)", "pKa": 9.2},
      {"smiles": "Nc1cnnc2ccccc12", "pKa": 6.84},
      {"smiles": "N=C(N)Nc1nccc(-c2csc(N)n2)n1", "pKa": 9.2},
      {"smiles": "O=Cc1ccc(-c2cnc(-c3ccccc3)o2)cc1", "pKa": 0.57},
      {"smiles": "NC(=S)C1([NH3+])CCCCC1", "pKa": -8.08},
      {"smiles": "Nc1ccc2nnccc2c1", "pKa": 5.04},
      {"smiles": "CC1=CC(C)=N/C1=C/c1[nH]c(C)cc1C", "pKa": 8.4},
      {"smiles": "C=Cc1ccc(C)nc1", "pKa": 5.67},
      {"smiles": "Cc1c[n+](C)c([O-])nc1N", "pKa": 4.76},
      {"smiles": "CN1[C@H]2CC=C(C(=O)[O-])[C@@H]1CC2", "pKa": 10.8},
      {"smiles": "CCN(CC)c1ncnc2[nH]ncc12", "pKa": 4.71},
      {"smiles": "CCC1CSC(C(C)C)=N1", "note": "(configuration not stated)", "pKa": 5.28},
      {"smiles": "CCC[C@H]1NC(C(=O)[O-])CS1", "note": "(some centres not stated)", "pKa": 6.25},
      {"smiles": "C=C[C@]1(O)C[C@H](C)N[C@@H]2CCCC[C@H]21", "pKa": 9.83},
      {"smiles": "O/N=C1C=C/C(=N\\O)c2cccnc2/1", "pKa": 3.7},
      {"smiles": "CN(C)c1ccc(C(O)c2ccc(N(C)C)cc2)cc1", "pKa": 5.61},
      {"smiles": "CC[NH+](CC)CCNc1cc(C)nc(N)n1", "pKa": 7.6},
      {"smiles": "N#Cc1cccnc1", "pKa": 1.48},
      {"smiles": "CCCN(C)c1ccccc1", "pKa": 5.67},
      {"smiles": "N[C@H]1C[C@@H]2CCCC[C@H]2C[C@@H]1N", "pKa": 9.97},
      {"smiles": "CN(C)C[C@@H]1[C@@H](N)[C@]2(C)CC[C@@H]1C2(C)C", "pKa": 9.45},
      {"smiles": "OCCc1cccnc1", "pKa": 5.38},
      {"smiles": "O=[PH]([O-])C([NH2+]Cc1ccncc1)c1ccccc1O", "note": "(configuration not stated)", "pKa": 3.25},
      {"smiles": "CN1CCN(C(c2ccccc2)c2ccc(Cl)cc2)CC1", "note": "(configuration not stated)", "pKa": 7.81},
      {"smiles": "[O-]c1ccncc1", "pKa": 11.1},
      {"smiles": "[S-]c1ncc2nc[nH]c2n1", "pKa": 7.15},
      {"smiles": "CCC(=O)OCCN(C)C", "pKa": 8.29},
      {"smiles": "c1nc(Cc2c[nH]c(Cc3[nH]cc[nH+]3)n2)c[nH]1", "pKa": 6.15},
      {"smiles": "CCCCN(CCCC)c1ccccc1", "pKa": 6.41},
      {"smiles": "O=[N+]([O-])c1ccc(/C=C/c2nnnn2-c2ccc([N+](=O)[O-])cc2)cc1", "pKa": -3.15},
      {"smiles": "[O-]c1ccnc2cccnc12", "pKa": 10},
      {"smiles": "CCc1cc(CC)c(OC)c(C(=O)NC[C@H]2CCCN2CC)c1[O-]", "pKa": 9.54},
      {"smiles": "[O-]c1ncnc2nc[nH]c12", "pKa": 8.81},
      {"smiles": "CCC(C)NC(C)CC", "note": "(configuration not stated)", "pKa": 10.9},
      {"smiles": "NC(=O)Cc1ccncc1", "pKa": 5.08},
      {"smiles": "CCCCCCCCCCN(CCO)CC(C)O", "note": "(configuration not stated)", "pKa": 7.5},
      {"smiles": "c1ccc(CN(CC2=NCCN2)c2ccccc2)cc1", "pKa": 10.1},
      {"smiles": "C[NH+](C)CCCN=C(c1ccccc1)c1ccccc1", "pKa": 5.2},
      {"smiles": "CC(C=C(c1cccs1)c1cccs1)N1CCCCCC1", "note": "(configuration not stated)", "pKa": 7.96},
      {"smiles": "NC(=S)c1ccccc1", "pKa": -3.2},
      {"smiles": "CCN(CC)CC(=O)Nc1cc(C)cc(C)c1", "pKa": 8.01},
      {"smiles": "CCN(CC)CCC(=O)Nc1c(C)cccc1C", "pKa": 8.96},
      {"smiles": "CCOc1ccc2nc3cc([N+](=O)[O-])ccc3c(N)c2c1", "pKa": 7.5},
      {"smiles": "Cc1cccc(CCCCCCCC(=O)[O-])n1", "pKa": 7},
      {"smiles": "Nc1ccc(S(=O)(=O)Nc2cccc[nH+]2)cc1", "pKa": 1},
      {"smiles": "CCCCCCCCCCN(CCO)CC(O)CC", "note": "(configuration not stated)", "pKa": 7.2},
      {"smiles": "O=C([O-])[C@]12CNCC[C@H]1O2", "pKa": 9.14},
      {"smiles": "C[C@@H]1CCN2CC=C[C@H]12", "pKa": 10.6},
      {"smiles": "Clc1ccnc2c1ccc1c(Cl)ccnc12", "pKa": 3.03},
      {"smiles": "CNCCCNC(=O)/C=N/[O-]", "pKa": 10.6},
      {"smiles": "OCCN1CC[NH2+]CC1", "pKa": 5.47},
      {"smiles": "CCCCc1nc(N)c2ncsc2n1", "pKa": 3.49},
      {"smiles": "O=[N+]([O-])c1ccc2[nH]ncc2c1", "pKa": 0.13},
      {"smiles": "Nc1ccc([NH3+])c(N)c1", "pKa": 3.69},
      {"smiles": "O/N=C/c1ccccc1O", "pKa": 1.37},
      {"smiles": "c1cnc2ccc3[nH+]cccc3c2c1", "pKa": 2.4},
      {"smiles": "c1nc(NC2CCCCC2)c2[nH]cnc2n1", "pKa": 4.2},
      {"smiles": "C[C@@H]1[C@@H](N)[C@H]1N", "pKa": 8.98},
      {"smiles": "Cc1cc(N)cc(C)c1[N+](=O)[O-]", "pKa": 2.56},
      {"smiles": "COc1ccc(/N=N/c2ccncc2)cc1", "pKa": 4.53},
      {"smiles": "COc1ccc(N(C)C)cc1", "pKa": 5.86},
      {"smiles": "O=[N+]([O-])c1cccc(Nc2ccccc2)c1", "pKa": -1.27},
      {"smiles": "Nc1ccc2nc3ccc(N)cc3cc2c1", "pKa": 6.18},
      {"smiles": "CNc1cccnc1", "pKa": 6.41},
      {"smiles": "Cc1nc(N)nc(N)n1", "pKa": 4.59}
    ]}
  ]
}
